# Measurements as given in patent US20240050463A1, “THERAPEUTIC COMPOSITIONS AND METHODS FOR TREATING HEPATITIS B” (ARBUTUS BIOPHARMA CORPORATION, priority 2016, published 2024).
# Where two headings read alike, the source gives them in different places.
# Experiments:
# hepatitis B virus (HBV) = assay: Serum HBV DNA in mouse model of HBV (pHBV1.3 hydrodynamic injection), quantitative PCR; format: in vivo, NOD.CB17-Prkdc^scid/J mice; settings: mean ± SEM
# Experimental: A mouse model of hepatitis B virus (HBV) was used to assess the anti-HBV effects of a small molecule inhibitor of HBV encapsidation (Compound 3) and HBV-targeting siRNAs, both as independent treatments and in combination with each other.
# On Day −7, 10 micrograms of the plasmid pHBV1.3 (as per Guidotti, L., et al., Journal of Virology, 1995, 69(10): 6158-6169) was administered to NOD.CB17-Prkdc^scid/J mice via hydrodynamic injection (HDI; rapid 1.6 mL injection into the tail vein). […] As a readout of the anti-HBV effect of various treatments, serum HBV DNA concentration in mice was measured from total extracted DNA using a quantitative PCR assay (primer/probe sequences from Tanaka, Y., et al., Journal of Medical Virology, 2004, 72: 223-229).
# Animals were treated with Compound 3 as follows: Starting on Day 0, a 50 mg/kg or 100 mg/kg dosage of Compound 3 was administered orally to animals on a twice-daily frequency for a total of fourteen doses between Days 0 and 7. Compound 3 was dissolved in a co-solvent formulation for administration. Negative control animals were administered either the co-solvent formulation alone, or saline. Animals were treated with lipid nanoparticle (LNP)-encapsulated HBV-targeting siRNAs as follows: On Day 0, an amount of test article equivalent to 0.1 mg/kg siRNA was administered intravenously.
# The effect of these treatments was determined by collecting blood on Days 0 (pre-treatment), 4 & 7 and analyzing it for serum HBV DNA content.
# Animals were treated with Compound 3 as follows: Starting on Day 0, a 100 mg/kg dosage of Compound 3 was administered orally to animals on a twice-daily frequency for a total of fourteen doses between Days 0 and 7. Compound 3 was dissolved in a co-solvent formulation for administration. Negative control animals were administered either the co-solvent formulation alone, or saline. Animals were treated with ETV as follows: Starting on Day 0, either a 100 ng/kg or a 300 ng/kg dosage of ETV was administered orally to animals on a once-daily frequency for a total of seven doses between Days 0 and 6. ETV was dissolved in DMSO to 2 mg/mL and then diluted in saline for administration.
# The effect of these treatments was determined by collecting blood on Days 0 (pre-treatment), 4 & 7 and analyzing it for serum HBV DNA content. Samples with Ct values below the lower limit of quantitation (LLOQ) were set to one-half LLOQ for calculation of group means.
# [1] = test system: HBV rcDNA in HepDE19 cells; assay: Inhibition of rcDNA in HepDE19 cells (bDNA assay), checkerboard, MacSynergy II; format: cell-based, HBV (human hepatoma cell line); parameters: key to ADDITIVE INHIBITION: % inhibition of rcDNA production; settings: for ADDITIVE INHIBITION: GLS-4 0 μM; for inhibition at 0.000125 µM: ETV 0.125 nM alone
# Experimental: In vitro combination studies were conducted using the method of Prichard and Shipman (Prichard M N, and Shipman C Jr., Antiviral Research, 1990, 14(4-5), 181-205; and Prichard M N, et. al., MacSynergy II). HepDE19 cell culture system is a HepG2 (human hepatocarcinoma) derived cell line that supports HBV DNA replication and cccDNA formation in a tetracycline (Tet)-regulated manner and produces HBV rcDNA and a detectable reporter molecule dependent on the production and maintenance of cccDNA (Guo et al 2007. J. Virol 81:12472-12484). HepDE19 (50,000 cells/well) were plated in 96 well collagen-coated tissue-culture treated microtiter plates in DMEM/F12 medium supplemented with 10% fetal bovine serum, 1% penicillin-streptomycin and 1 μg/ml tetracycline and incubated in a humidified incubator at 37° C. and 5% CO2 overnight. Next day, the cells were switched to fresh medium without tetracycline and incubated for 4 hrs at 37° C. and 5% CO2. […] The two inhibitors were tested both singly as well as in combinations in a checkerboard fashion such that each concentration of inhibitor A was combined with each concentration of inhibitor B to determine their combination effects on inhibition of rcDNA production. Following a 7 day-incubation of cells with compound combinations, the level of rcDNA present in the inhibitor-treated wells was measured using a Quantigene 2.0 bDNA assay kit (Affymetrix, Santa Clara, CA) with HBV specific custom probe set and manufacturers instructions. […] The RLU data from the single compound treated cells were analyzed using XL-Fit module in Microsoft Excel to determine EC50 values using a 4-parameter curve fitting algorithm. Concurrently, the effect of compounds on cell viability was assessed using replicate plates, plated at a density of 5,000 cells/well and incubated for 4 days, to determine the ATP content as a measure of cell viability using the cell-titer glo reagent (CTG; Promega Corporation, Madison, WI) as per manufacturer's instructions.
# In vitro combination studies were conducted using the method of Prichard and Shipman (Prichard M N, Shipman C, Jr., Antiviral Res, 14, 181-205 (1990)). The HepDE19 cell line was developed as described in Guo et al. (Guo et al., J Virol, 81, 12472-12484 (2007)). It is a human hepatoma cell line stably transfected with the HBV genome, and which can express HBV pregenomic RNA and support HBV rcDNA (relaxed circular DNA) synthesis in a tetracycline-regulated manner. HepDE19 cells were plated in 96 well tissue-culture treated microtiter plates in DMEM/F12 medium supplemented with 10% fetal bovine serum+1% penicillin-streptomycin without tetracycline and incubated in a humidified incubator at 37° C. and 5% CO2 overnight. […] The two inhibitors were tested both singly as well as in combinations in a checkerboard fashion such that each concentration of inhibitor A was combined with each concentration of inhibitor B to determine their combination effects on inhibition of rcDNA production. Following a 48 hour-incubation, the level of rcDNA present in the inhibitor-treated wells was measured using a bDNA assay (Affymetrix) with HBV specific custom probe set and manufacturers instructions. […] Concurrently, the effect of inhibitor combinations on cell viability was assessed using replicate plates that were used to determine the ATP content as a measure of cell viability using the Cell-TiterGlo reagent (Promega) as per manufacturer's instructions.
# In vitro combination studies were conducted using the method of Prichard and Shipman (1990) (Prichard M N, Shipman C, Jr. 1990. A three-dimensional model to analyze drug-drug interactions. Antiviral Res 14:181-205 AND Prichard M N. 1992. MacSynergy II, University of Michigan).
smiles,measurement,setting,value
CC[C@@H](C)NS(=O)(=O)c1ccc(F)c(C(=O)Nc2ccc(F)c(F)c2)c1 [Compound 3],Serum HBV DNA as percentage of individual pre-treatment baseline,"hepatitis B virus (HBV); Table 2, Day 0 (pre-treatment), Compound 3 50 mg/kg oral twice daily, alone or with HBV siRNA 0.1 mg/kg IV Day 0",100 ± 0%
same,Serum HBV DNA as percentage of individual pre-treatment baseline,"hepatitis B virus (HBV); Table 2, Day 0 (pre-treatment), Compound 3 100 mg/kg oral twice daily, alone or with HBV siRNA 0.1 mg/kg IV Day 0",100 ± 0%
same,Serum HBV DNA as percentage of individual pre-treatment baseline,"hepatitis B virus (HBV); Table 3, Day 0 (pre-treatment), Compound 3 100 mg/kg oral twice daily alone",100 ± 0%
same,ADDITIVE INHIBITION,[1]; Compound 3 0.040 μM,11.14
same,ADDITIVE INHIBITION,[1]; Compound 3 0.110 μM,19.99
same,ADDITIVE INHIBITION,[1]; Compound 3 0.330 μM,56.68
same,ADDITIVE INHIBITION,[1]; Compound 3 1.000 μM,86.87
"C=C1[C@H](CO)[C@@H](O)C[C@@H]1n1cnc2c(=O)[nH]c(N)nc21 [ETV, Entecavir]",Serum HBV DNA as percentage of individual pre-treatment baseline,"hepatitis B virus (HBV); Table 3, Day 0 (pre-treatment), ETV 100 ng/kg oral once daily, alone or with Compound 3 100 mg/kg oral twice daily",100 ± 0%
same,Serum HBV DNA as percentage of individual pre-treatment baseline,"hepatitis B virus (HBV); Table 3, Day 0 (pre-treatment), ETV 300 ng/kg oral once daily, alone or with Compound 3 100 mg/kg oral twice daily",100 ± 0%
same,Serum HBV DNA as percentage of individual pre-treatment baseline,"hepatitis B virus (HBV); Table 3, Day 4, ETV 100 ng/kg oral once daily, alone or with Compound 3 100 mg/kg oral twice daily",21 ± 5%
same,Serum HBV DNA as percentage of individual pre-treatment baseline,"hepatitis B virus (HBV); Table 3, Day 4, ETV 300 ng/kg oral once daily, alone or with Compound 3 100 mg/kg oral twice daily",1.6 ± 0.3%
same,Serum HBV DNA as percentage of individual pre-treatment baseline,"hepatitis B virus (HBV); Table 3, Day 7, ETV 100 ng/kg oral once daily, alone or with Compound 3 100 mg/kg oral twice daily",3.5 ± 0.7%
same,Serum HBV DNA as percentage of individual pre-treatment baseline,"hepatitis B virus (HBV); Table 3, Day 7, ETV 300 ng/kg oral once daily, alone or with Compound 3 100 mg/kg oral twice daily",0.88 ± 0.31%
same,inhibition at 15.63 pM,"[1]; Hepatitis B virus, HepDE19, ETV 0.015625 nM alone, read-out: Additive inhibition (rcDNA)",-43.7%
same,inhibition at 16 pM,"[1]; Hepatitis B virus, HepDE19, ETV 0.016 nM alone",-43.7%
same,inhibition at 31 pM,"[1]; Hepatitis B virus, HepDE19, ETV 0.031 nM alone",-50.1%
same,inhibition at 31.25 pM,"[1]; Hepatitis B virus, HepDE19, ETV 0.03125 nM alone, read-out: Additive inhibition (rcDNA)",-50.1%
same,inhibition at 62.5 pM,"[1]; Hepatitis B virus, HepDE19, ETV 0.0625 nM alone, read-out: Additive inhibition (rcDNA)",-30.3%
same,inhibition at 63 pM,"[1]; Hepatitis B virus, HepDE19, ETV 0.063 nM alone",-30.3%
same,inhibition at 0.000125 µM,"[1]; Hepatitis B virus, HepDE19, read-out: Additive inhibition (rcDNA)",-23.5%
same,inhibition at 0.000125 µM,"[1]; Hepatitis B virus, HepDE19, read-out: Average % inhibition (rcDNA)",-23.5%
same,inhibition at 0.00025 µM,"[1]; Hepatitis B virus, HepDE19, ETV 0.25 nM alone, read-out: Additive inhibition (rcDNA)",-21.2%
same,inhibition at 0.00025 µM,"[1]; Hepatitis B virus, HepDE19, ETV 0.250 nM alone, read-out: Average % inhibition (rcDNA)",-21.2%
same,inhibition at 0.0005 µM,"[1]; Hepatitis B virus, HepDE19, ETV 0.5 nM alone, read-out: Additive inhibition (rcDNA)",-10.2%
same,inhibition at 0.0005 µM,"[1]; Hepatitis B virus, HepDE19, ETV 0.500 nM alone, read-out: Average % inhibition (rcDNA)",-10.2%
same,inhibition at 0.001 µM,"[1]; Hepatitis B virus, HepDE19, ETV 1 nM alone, read-out: Additive inhibition (rcDNA)",41.7%
same,inhibition at 0.001 µM,"[1]; Hepatitis B virus, HepDE19, ETV 1.000 nM alone, read-out: Average % inhibition (rcDNA)",41.7%
same,inhibition at 0.002 µM,"[1]; Hepatitis B virus, HepDE19, ETV 2 nM alone, read-out: Additive inhibition (rcDNA)",58.4%
same,inhibition at 0.002 µM,"[1]; Hepatitis B virus, HepDE19, ETV 2.000 nM alone, read-out: Average % inhibition (rcDNA)",58.4%
same,inhibition at 0.004 µM,"[1]; Hepatitis B virus, HepDE19, ETV 4 nM alone, read-out: Additive inhibition (rcDNA)",70%
same,inhibition at 0.004 µM,"[1]; Hepatitis B virus, HepDE19, ETV 4.000 nM alone, read-out: Average % inhibition (rcDNA)",70%
